In patent publication US12577537B2, “Method for culturing primary cancer cells through simulated microgravity-induced reprogramming and applications thereof” (SHANDONG UNIVERSITY, priority 2024, dated 2026):

How the values were obtained:
[1] = in vitro; conditions: human
From the text: (§1) Wherein, FIGS. 12D to 12I show the dose-response relationships of breast cancer cells (D, F, H) and normal breast tissue cells (E, G, I) from three patients (38, 7, and 71) to epirubicin; FIGS. 12J to 12O show the dose-response relationships of breast cancer cells (J, L, N) and normal breast tissue cells (K, M, O) from the same three patients (38, 7, and 71) to cyclophosphamide.
(§2) The inventors conducted drug-related experiments using the cancer cell models prepared by the method of the present application. FIG. 12A lists 8 types of common drugs used in clinical treatment of breast cancer, including epirubicin, cyclophosphamide, docetaxel, etc. This example selected two of them (FIG. 12B: epirubicin, FIG. 12C: cyclophosphamide) to conduct drug sensitivity tests on breast cancer cells from different patients cultivated in Example 5.

[2] = test system: breast cancer cells; assay: Drug sensitivity test on SMGIR-cultured breast cancer cells from patients; type: cell-based; conditions: Homo sapiens
From the text: as §1, §2

[3] = test system: normal breast tissue cells; assay: Drug sensitivity test on SMGIR-cultured normal breast tissue (cancer-adjacent) cells from patients; type: cell-based; conditions: Homo sapiens
From the text: as §1, §2

O=P1(N(CCCl)CCCl)NCCCO1 (stereo not shown) [cyclophosphamide]
viability at 4000 μM [1]: 70 to 80%

COc1cccc2c1C(=O)c1c(O)c3c(c(O)c1C2=O)C[C@@](O)(C(=O)CO)C[C@@H]3O[C@H]1C[C@H](N)[C@@H](O)[C@H](C)O1 [epirubicin]
IC50 ([2]; 12 h, breast cancer cells from patient 71, SMGIR-cultured (FIG. 12H)): 454 nM
IC50 ([2]; breast cancer cells from patient 7, SMGIR-cultured (FIG. 12F)): 583 nM
IC50 ([2]; breast cancer cells from patient 38, SMGIR-cultured (FIG. 12D)): 369 nM
IC50 ([3]; normal breast tissue cells from patient 7, SMGIR-cultured (FIG. 12G)): 651 nM
IC50 ([3]; normal breast tissue cells from patient 38, SMGIR-cultured (FIG. 12E)): 357 nM
IC50 ([3]; normal breast tissue cells from patient 71, SMGIR-cultured (FIG. 12I)): 766 nM
